Experiments:
[1] = system: carrageenin-induced paw edema; test: Carrageenin Edema Test in Rats; assay type: in vivo, rat (male Wistar); conditions: for Inhibition %, Anti-inflammatory activity: Table I; for ED50: Rattus norvegicus, po, P.O., 30 minutes before carrageenin, edema 3 hours after, rats, Table II, read-out: Anti-inflammatory activity, Carrageenin Edema Test ID50
Description: (1) Carrageenin Edema Test in Rats
Inflammation was introduced by injection of 0.05 ml. of 1% carrageenin suspension into the plantar tissue of rat hind paw subcutaneously, by the method of Winter et al. in Proc. Soc. Exp. Biol. Med. 111, 544 (1962). Male Wistar rats weighing 120 to 150 g. which had fasted overnight received the test drug in aqueous tragacanth suspension orally 30 minutes before the carrageenin injection.
Paw edema was measured volumetrically, just before and 3 hours after the carrageenin injection, and R (response) was obtained by the following equation: R=(V-Vo)/Vo, where Vo and V represented the paw volumes 0 and 3 hours after carrageenin injection, respectively.
(§1) In order to get the regression line of H (% inhibition of the response) on D (dose of test drug), H in each animal was calculated from the ratio of the response to the mean response in non-medicated group. Then, the regression line and ID50 were obtained by the method of least squares. The confidence limits of ID50 was calculated using Fieller's Equation.

LPS-induced fever = test: LPS-induced Fever Test in Guinea Pigs (antipyretic activity); assay type: in vivo, guinea pig (female Hartley); conditions: Cavia porcellus, po, P.O., 1.5 hours after LPS, mean at 1 and 2 hours after drug, Table II, read-out: Antipyretic activity, LPS-induced Fever Test ID50
Description: III. ANTIPYRETIC ACTIVITY
LPS-induced Fever Test in Guinea Pigs
Antipyretic activity was determined by a modified method of Kobayashi and Takagi in Jap. J. Pharmacol. 18, 80 (1968). Female Hartley guinea pigs weighing about 300 g. had fasted overnight and the fever was induced by injecting 1.0 μg/ml/kg LPS (product of Difco Laboratories, U.S.A., Lipo polysaccharide from Escherichia coli).
One hour after the injection, rectal temperature was measured and only the animals with fever between 0.8° C. and 1.2° C. were used for experiment.
Drugs were administered orally 1.5 hours after LPS injection, and the mean value of rectal temperature of each animal 1 and 2 hours after drug administration was used as the response.
as §1

inflammatory pain = test: Thermal Pain Test in Rats (analgesic activity on inflammatory pain); assay type: in vivo, rat (male Wistar); conditions: for Inhibition %, Analgesic activity: Table I; for ED50: Rattus norvegicus, po, P.O., mean at 1 and 2 hours after drug, rats, Table II, read-out: Analgesic activity, Thermal Pain Test ID50
Description: II. ANALGESIC ACTIVITY ON INFLAMMATORY PAIN
Thermal Pain Test in Rats
The test was conducted according to the method reported by Y. Iizuka and K. Tanaka in Folia Pharmacol. Japan, 70, 697 (1974).
Under ether anesthesia, male Wistar rat of 5-7 weeks old received a standard heat injury at the hind paw by dipping it in hot water (57° C., 6 seconds). More than 1 hour later, the pain reaction could be evoked easily by another stimulatory heat (40° C., 5 seconds). Namely immediately after this treatment, the animal used to lift up the injured paw, presumably to avoid further pain which might be caused by touching it with the wire-netting of the cage.
Thus, the sum of duration time of the paw-lifting behavior was counted over a 30 seconds period and this was used as "pain reaction time." Drug was given orally 2 hours after the first application of heat and the mean value of "pain reaction time" at 1 and 2 hours after drug administration was used as the response.
as §1

[2] = system: adjuvant-induced arthritis; test: Adjuvant-induced Arthritis Test in Rats (Therapeutic Effect on Established Arthritis); assay type: in vivo, rat (female Lewis); conditions: Rattus norvegicus, po, 168 h, P.O., twice a day, 7 days (day 18 to 25), Table II, read-out: Anti-inflammatory activity, Adjuvant Arthritis Test ID50
Description: (2) Adjuvant-induced Arthritis Test in Rats
(Therapeutic Effect on Established Arthritis)
Female Lewis rats of 7-8 weeks old were injected intradermally in the hind paw with 0.05 mg. of heat-killed Mycobacterium butyricum in 0.05 ml. of liquid paraffin. Eighteen days after adjuvant injection, the well-established arthritic animals were selected and subjected to 7 days therapy with drug (twice a day orally). As the response, the volume of injected foot was measured by water displacement method at the beginning (day 18) and the end (day 25) of the therapy period.
as §1
In adjuvant arthritis, however, the ratio (RR) of responses after/before medication period was calculated first, where the response meant the swelled foot volume of the injected foot. Then, H in each animal was calculated from the ratio of RR to RRc, where RRc represented the mean RR is non-medicated group.

Compound | Inhibition %, Anti-inflammatory activity ([1]; 6.3 mg/kg (P.O.)) [%] | ED50 [1] [mg/kg] | ED50 (LPS-induced fever) [mg/kg] | Inhibition %, Analgesic activity (inflammatory pain; 6.3 mg/kg (P.O.)) [%] | ED50 (inflammatory pain) [mg/kg] | ED50 [2] [mg/kg] | Inhibition %, Anti-inflammatory activity ([1]; (Control) 25 mg/kg (P.O.)) [%] | Inhibition %, Analgesic activity (inflammatory pain; (Control) 19 mg/kg (P.O.)) [%]
CC(C(=O)O)c1ccc(C=C2CCCCC2=O)cc1 (stereo not shown) [2-[4-(2-Oxo-1-cyclohexylidenemethyl)phenyl]propionic acid] | 75.0 | 1.2 | 1.46 | 86.8 | 1.8 | 0.2 |  | 
CC(C(=O)O)c1ccc(C=C2CCCC2=O)cc1 (stereo not shown) [2-[4-(2-Oxo-1-cyclopentylidenemethyl)phenyl]propionic acid] | 76.4 | 1.4 | 0.83 | 77.4 | 1.3 | 1.2 |  | 
CCOC(=O)C(C)c1ccc(C=C2CCCCC2=O)cc1 (stereo not shown) [Ethyl 2-[4-(2-oxo-1-cyclohexylidenemethyl)phenyl]propionate] | 72.7 |  |  | 59.2 |  |  |  | 
CCOC(=O)C(C)c1ccc(C=C2CCCC2=O)cc1 (stereo not shown) [Ethyl 2-[4-(2-oxo-1-cyclopentylidenemethyl)phenyl]propionate] | 85.0 |  |  | 50.5 |  |  |  | 
CC(C)Cc1ccc(C(C)C(=O)O)cc1 (stereo not shown) [Ibuprofen, reference compound] |  | 10.8 | 1.26 |  | 17.8 | 104 |  | 
CCCCC1C(=O)N(c2ccccc2)N(c2ccccc2)C1=O [Phenylbutazone, reference compound] |  |  |  |  |  |  | 30.6 | 37

— patent US4365076A, “Process for the preparation of cycloalkylidenemethylphenylacetic acid derivatives” (Sankyo Company Limited, priority 1977, dated 1982)
